Here are results for one compound from patent US20230278974A1, “ANTITUMORAL ASCORBIC ACID ESTERS” (SUIGENERIS FARMACOSMETICS, S.L., priority 2020, published 2023).

The subject of this test is primary or metastatic human cancer cells from various origins (IGR39, IGR37, MW115, MW266.4, DLD1, SW480, HCT116, NUG-C4, COLO668, BXPC3, CAPAN2, RWP1). The test can be described thus: Growth inhibition of human cancer cell lines (crystal violet staining, 96 well plates). The format is cell-based. The note with it: even at concentrations as low as 0.2 mM; 72 h treatment. The text has this:
The BXPC3, CAPAN2, RWP1 cell lines from human pancreatic cancer were provided by the Biomedical Research Institute (IRB) Barcelona; the MW115 and IGR39 cell lines from human primary melanoma and MW 266.4 and IGR37 from human metastatic melanoma were provided by Dr. Manel Esteller from the Catalan Institute of Oncology (ICO) Barcelona (Vizoso M. et al., “Epigenetic activation of a cryptic TBC1D16 transcript enhances melanoma progression by targeting EGFR” Nat Med., 2015, vol 21(7), pp. 741-50); DLDL1, SW480 and HCT116 cell lines from human colon cancer were provided by Dra. Neus Agell from the Research Institute August Pi Sunyer (IDIBAPS) - University of Barcelona (UB); NUG-C4 and COLO668 cell lines from human gastric and lung cancers, respectively, were provided by the Center for Genomic Regulation (CRG) Barcelona. […]
The cells were resuspended by trypsin/EDTA digestion with 0.5% Trypsin-EDTA in the case of different human cancer cell lines, and 0.25% Trypsin-EDTA in the case of human primary endothelial cells. Once resuspended in culture medium, they were counted in Newbauer chamber after a 1:1 dilution with trypan blue. […]
The optical density values per well were obtained by a Biotek Synergy™2 multi-detection microplate reader, using a 590 nm filter and by scanning reading, obtaining the mean values per well.

On to `CCCCCCC1CCC(CCC(=O)OC[C@H](O)[C@H]2OC(=O)C(O)=C2O)CC1` (stereo partly drawn) [Compound Ib, (S)-2-((R)-3,4-Dihydroxy-5-Oxo-2,5-Dihydrofuran-2-Yl)-2-Hydroxyethyl 3-(4-Hexylcyclohexyl)Propanoate], for which the “inhibitory capacity on growth of cancer cells” value was “remarkable inhibitory capacity”.
